Laboratory results: US9155309B2, “Virus inactivating sheet” (priority 2009, dated 2015)
Like-named read-outs stand apart in the source and are kept apart here.

Tested on: influenza virus (influenza A/Kitakyusyu/159/93(H3N2))
Type: cell-based
Conditions: 10 minutes at room temperature, PBS control 128

In the case of `[Cu+].[Cu+].[S-2]` [compound 26, COPPER(I) SULFIDE], the “HA TITER” value (material concentration 0.5 percent by mass in PBS) is reported as 64 and the “HA TITER” value (material concentration 5 percent by mass in PBS) is reported as 16.
